Measurements as given in US20250099596A1, “TETRAHYDRONAPHTHALENE COMPOUND, AND PREPARATION METHOD THEREFOR AND USE THEREOF IN MEDICINE” (Jiangsu Hengrui Pharmaceuticals Co., Ltd., priority 2021, published 2025).

Legend:
MCF7 cells = experiment: Inhibitory effects on MCF7 cell proliferation (CellTiter-Glo); type: cell-based; settings: Homo sapiens, 144 h, 6 days incubation, read-out: IC50 (nM), inhibition of MCF7 cell proliferation
Procedure: (§1) MCF7 cells (TCHu74, National Collection of Authenticated Cell Cultures) were cultured in an MEM (GE Healthcare, SH30024.01) complete medium containing 10% fetal bovine serum. On day 1 of the experiment, MCF7 cells were seeded into a 96-well plate at a density of 3,000 cells/well using MEM containing 2% fetal bovine serum, with each well containing 135 μL of cell suspension. The plate was incubated in a 37° C., 5% CO2 cell incubator overnight. The next day, different concentrations of test compounds prepared in media were added at 15 μL/well. The final concentrations of the compounds were 9 concentration points obtained by 4-fold serial dilution from 1000 nM. A blank control containing 0.5% DMSO was set up. The plate was incubated in a 37° C., 5% CO2 cell incubator for 6 days. On day 8, the 96-well cell culture plate was taken out, and CellTiter-Glo® Luminescent Cell Viability Assay (Promega, G7573) was added at 75 μL/well. After the plate was left at room temperature for 10 min, luminescence signal readings were taken on a multilabel microplate reader (PerkinElmer, VICTOR 3). The IC50 values for the inhibitory activity of the compounds were calculated from the concentrations of the compounds and the luminescence signal readings using Graphpad Prism software.

MCF7/ERα Y537S cells = experiment: Inhibitory activity on proliferation of ERα mutant-expressing MCF7 cells; type: cell-based; settings: Homo sapiens, 144 h, 6 days incubation, CellTiter-Glo, read-out: IC50 (nM), inhibition of proliferation of ERα mutant-expressing MCF7 cells
Procedure: The objective of this experiment was to determine the inhibitory activity of the compounds of the present disclosure on the proliferation of ERα mutant-expressing MCF7 cells.
as §1, with “cells expressing the ERα Y537S mutant were constructed by lentiviral infection. MCF7/ERα Y537S cells” for “cells (TCHu74, National Collection of Authenticated Cell Cultures)”, “bovine serum and […] puromycin.” for “bovine serum.”, “experiment,” for “experiment, MCF7”, “135 µL” for “135 μL”, “75 µL/well.” for “75 μL/well.”

SMILES	IC50 (MCF7 cells) [nM]	IC50 (MCF7/ERα Y537S cells) [nM]
CC[C@H]1CCc2cc(O)ccc2[C@H]1c1ccc(N2CCC(CN3CCN(c4ccc5c(c4)CN([C@H]4CCC(=O)NC4=O)C5=O)CC3)CC2)cc1 [Example 28, (S)-3-(5-(4-((1-(4-((1R,2S)-6-Hydroxy-2-ethyl-1,2,3,4-tetrahydronaphthalen-1-yl)phenyl)piperidin-4-yl)methyl)piperazin-1-yl)-1-oxoisoindolin-2-yl)piperidine-2,6-dione]	1.51	5.21
O=C1CCC(N2Cc3cc(N4CCN(CC5CCN(c6ccc(C7c8ccc(O)cc8CCC78CCCC8)cc6)CC5)CC4)ccc3C2=O)C(=O)N1 (stereo not shown) [Example 1, 3-(5-(4-((1-(4-(6′-Hydroxy-3′,4′-dihydro-1′H-spiro[cyclopentane-1,2′-naphthalen]-1′-yl)phenyl)piperidin-4-yl)methyl)piperazin-1-yl)-1-oxoisoindolin-2-yl)piperidine-2,6-dione]	6.15	14.9
O=C1CCC(N2Cc3cc(N4CCN(CC5CCN(c6ccc([C@@H]7c8ccc(O)cc8CC[C@@H]7C7CCOCC7)cc6F)CC5)CC4)ccc3C2=O)C(=O)N1 (relative stereo) [Example 3, 3-(5-(4-((1-(2-Fluoro-4-((1,2)-cis-6-hydroxy-2-(tetrahydro-2H-pyran-4-yl)-1,2,3,4-tetrahydronaphthalen-1-yl)phenyl)piperidin-4-yl)methyl)piperazin-1-yl)-1-oxoisoindolin-2-yl)piperidine-2,6-dione]	1.56	5.79
O=C1CC[C@H](N2Cc3cc(N4CCN(CC5CCN(c6ccc([C@@H]7c8ccc(O)cc8CCC78CCOCC8)cc6)CC5)CC4)ccc3C2=O)C(=O)N1 [Example 22, (S)-3-(5-(4-((1-(4-((R)-6-Hydroxy-2′,3,3′,4,5′,6′-hexahydro-1H-spiro[naphthalene-2,4′-pyran]-1-yl)phenyl)piperidin-4-yl)methyl)piperazin-1-yl)-1-oxoisoindolin-2-yl)piperidine-2,6-dione]	3.13	9.19
O=C1CC[C@H](N2Cc3cc(N4CCN(CC5CCN(c6ccc([C@@H]7c8ccc(O)cc8CC[C@@H]7Cc7ccccc7)cc6)CC5)CC4)ccc3C2=O)C(=O)N1 [Example 30, (S)-3-(5-(4-((1-(4-((1R,2R)-2-Benzyl-6-hydroxy-1,2,3,4-tetrahydronaphthalen-1-yl)phenyl)piperidin-4-yl)methyl)piperazin-1-yl)-1-oxoisoindolin-2-yl)piperidine-2,6-dione]	3.02	12.7
O=C1CCC(N2Cc3cc(N4CCN(CC5CCN(c6ccc(C7c8ccc(O)cc8CC[C@@H]7C7CCC(F)(F)CC7)cc6)CC5)CC4)ccc3C2=O)C(=O)N1 (stereo partly drawn) [Example 9, 3-(5-(4-((1-(4-((1,2)-cis-2-(4,4-Difluorocyclohexyl)-6-hydroxy-1,2,3,4-tetrahydronaphthalen-1-yl)phenyl)piperidin-4-yl)methyl)piperazin-1-yl)-1-oxoisoindolin-2-yl)piperidine-2,6-dione]	2.14	8.73
O=C1CC[C@H](N2Cc3cc(N4CCN(CC5CCN(c6ccc([C@@H]7c8ccc(O)cc8CC[C@@H]7C7CCCCC7)cc6F)CC5)CC4)ccc3C2=O)C(=O)N1 [Example 20, (S)-3-(5-(4-((1-(4-((1R,2R)-2-Cyclohexyl-6-hydroxy-1,2,3,4-tetrahydronaphthalen-1-yl)-2-fluorophenyl)piperidin-4-yl)methyl)piperazin-1-yl)-1-oxoisoindolin-2-yl)piperidine-2,6-dione]	0.73	2.74
CC(C)(C)C[C@H]1CCc2cc(O)ccc2[C@H]1c1ccc(N2CCC(CN3CCN(c4ccc5c(c4)CN([C@H]4CCC(=O)NC4=O)C5=O)CC3)CC2)cc1 [Example 39, (S)-3-(5-(4-((1-(4-((1R,2R)-6-Hydroxy-2-neopentyl-1,2,3,4-tetrahydronaphthalen-1-yl)phenyl)piperidin-4-yl)methyl)piperazin-1-yl)-1-oxoisoindolin-2-yl)piperidine-2,6-dione]	5.23	15.8
CC(C)[C@H]1CCc2cc(O)ccc2[C@H]1c1ccc(N2CCC(CN3CCN(c4ccc5c(c4)CN([C@H]4CCC(=O)NC4=O)C5=O)CC3)CC2)cc1 [Example 24, (S)-3-(5-(4-((1-(4-((1R,2R)-6-Hydroxy-2-isopropyl-1,2,3,4-tetrahydronaphthalen-1-yl)phenyl)piperidin-4-yl)methyl)piperazin-1-yl)-1-oxoisoindolin-2-yl)piperidine-2,6-dione]	1.21	5.44
O=C1CC[C@H](N2Cc3cc(N4CCN(CC5CCN(c6ccc([C@@H]7c8ccc(O)cc8CC[C@@H]7CC7CCC7)cc6)CC5)CC4)ccc3C2=O)C(=O)N1 [Example 35, (S)-3-(5-(4-((1-(4-((1R,2R)-2-(Cyclobutylmethyl)-6-hydroxy-1,2,3,4-tetrahydronaphthalen-1-yl)phenyl)piperidin-4-yl)methyl)piperazin-1-yl)-1-oxoisoindolin-2-yl)piperidine-2,6-dione]	3	8.48

The remaining lines, values ahead:

IC50 (MCF7 cells) [nM]	IC50 (MCF7/ERα Y537S cells) [nM]	SMILES
0.46	2.18	O=C1CCC(N2Cc3cc(N4CCN(CC5CCN(c6ccc([C@@H]7c8ccc(O)cc8CC[C@@H]7C7CCCCC7)cc6)CC5)CC4)ccc3C2=O)C(=O)N1 (mixture of isomers) [Example 15-1, 3-(5-(4-((1-(4-((1R,2R)-2-Cyclohexyl-6-hydroxy-1,2,3,4-tetrahydronaphthalen-1-yl)phenyl)piperidin-4-yl)methyl)piperazin-1-yl)-1-oxoisoindolin-2-yl)piperidine-2,6-dione]
0.75	2.45	O=C1CCC(N2Cc3cc(N4CCN(CC5CCN(c6ccc([C@@H]7c8ccc(O)cc8CC[C@@H]7C7CCCC7)cc6)CC5)CC4)ccc3C2=O)C(=O)N1 (mixture of isomers) [Example 14-1, 3-(5-(4-((1-(4-((1R,2R)-2-Cyclopentyl-6-hydroxy-1,2,3,4-tetrahydronaphthalen-1-yl)phenyl)piperidin-4-yl)methyl)piperazin-1-yl)-1-oxoisoindolin-2-yl)piperidine-2,6-dione]
13.7	39.4	O=C1CCC(N2Cc3cc(N4CCN(CC5CCN(c6ccc([C@H]7c8ccc(O)cc8CC[C@H]7C7CCOCC7)c(F)c6)CC5)CC4)ccc3C2=O)C(=O)N1 (mixture of isomers) [Example 12-2, 3-(5-(4-((1-(3-Fluoro-4-((1R,2S)-6-hydroxy-2-(tetrahydro-2H-pyran-4-yl)-1,2,3,4-tetrahydronaphthalen-1-yl)phenyl)piperidin-4-yl)methyl)piperazin-1-yl)-1-oxoisoindolin-2-yl)piperidine-2,6-dione]
0.83	4.79	O=C1CC[C@H](N2Cc3cc(N4CCN(CC5CCN(c6ccc([C@@H]7c8ccc(O)cc8CC[C@@H]7C7CCC7)cc6)CC5)CC4)ccc3C2=O)C(=O)N1 [Example 13-1, (S)-3-(5-(4-((1-(4-((1R,2R)-2-Cyclobutyl-6-hydroxy-1,2,3,4-tetrahydronaphthalen-1-yl)phenyl)piperidin-4-yl)methyl)piperazin-1-yl)-1-oxoisoindolin-2-yl)piperidine-2,6-dione]
